Counter-ions that a name gives are not always drawn.
The compounds below were run against Protein Kinase C beta 2 (PKCβII) (Homo sapiens (Human), UniProt P05771) (assay: PKCβII coupled spectrophotometric kinase assay (PK/LDH, NADH absorbance at 340 nm)). Conditions: apparent Ki, ATP competitive inhibition model (Morrison equation); 0.1 mM ATP, 5 nM PKC, 30° C.; read-out: Ki app.
Type: biochemical
Method in brief: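 PK/LDH-coupled ADP detection (NADH loss at 340 nm), 20 min at 30° C, pH 7.4; 5 nM PKCβII, 0.15 mM pseudosubstrate peptide, 0.1 mM ATP, with CaCl2, PS and PMA activators, 7.5% DMSO. Apparent Ki from initial velocities fitted to ATP-competitive Morrison model over 10,000–0.169 nM inhibitor.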

Chain of Protein Kinase C beta 2 (PKCβII) (P05771 other isoform, or with tags, fused parts or gaps): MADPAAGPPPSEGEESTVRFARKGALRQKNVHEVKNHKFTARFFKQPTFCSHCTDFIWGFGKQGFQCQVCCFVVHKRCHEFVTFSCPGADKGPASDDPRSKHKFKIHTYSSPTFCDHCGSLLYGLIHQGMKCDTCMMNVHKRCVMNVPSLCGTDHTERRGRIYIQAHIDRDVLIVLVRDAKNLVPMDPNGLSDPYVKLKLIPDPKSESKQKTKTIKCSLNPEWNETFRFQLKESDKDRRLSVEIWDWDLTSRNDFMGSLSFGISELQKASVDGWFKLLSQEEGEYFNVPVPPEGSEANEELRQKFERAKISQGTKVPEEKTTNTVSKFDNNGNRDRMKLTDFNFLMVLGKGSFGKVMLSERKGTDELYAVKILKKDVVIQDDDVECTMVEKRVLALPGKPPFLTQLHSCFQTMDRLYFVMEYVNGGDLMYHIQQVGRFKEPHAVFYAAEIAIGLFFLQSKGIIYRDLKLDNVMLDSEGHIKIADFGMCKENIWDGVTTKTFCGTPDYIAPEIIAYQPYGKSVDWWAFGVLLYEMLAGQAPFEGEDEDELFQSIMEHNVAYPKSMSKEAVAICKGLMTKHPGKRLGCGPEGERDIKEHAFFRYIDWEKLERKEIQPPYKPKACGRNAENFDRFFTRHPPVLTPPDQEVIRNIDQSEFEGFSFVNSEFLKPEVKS

Ki [nM] | Compound
1.73 | CCCc1ncc(F)c(Nc2n[nH]c3c2CN(C(=O)N2CC(C)(C)N(C)C[C@@H]2C)C3(C)C)n1 [Example I1, N-(5-fluoro-2-propylpyrimidin-4-yl)-6,6-dimethyl-5-{[(2S)-2,4,5,5-tetramethylpiperazin-1-yl]carbonyl}-1,4,5,6-tetrahydropyrrolo[3,4-c]pyrazol-3-amine]
36.5 | COc1ncc(F)c(Nc2n[nH]c3c2CN(C(=O)N2CC(CCO)N(C)C[C@@H]2C)C3(C)C)n1 (single isomer, unassigned) [Example K25]
5.09 | CCNc1ncc(F)c(Nc2n[nH]c3c2CN(C(=O)N2C[C@@H](C)N(CCCOC)C[C@@H]2C)C3(C)C)n1 [Example B1, N^2-ethyl-5-fluoro-N^4-(5-{[(2S,5R)-4-(3-methoxypropyl)-2,5-dimethylpiperazin-1-yl]carbonyl}-6,6-dimethyl-1,4,5,6-tetrahydropyrrolo[3,4-c]pyrazol-3-yl)pyrimidine-2,4-diamine acetate salt]
86 | CC[C@H]1CN(C(=O)N2Cc3c(Nc4nc(C)ncc4F)n[nH]c3C2(C)C)CCN1C [Example H4, 5-{[(3S)-3-ethyl-4-methylpiperazin-1-yl]carbonyl}-N-(5-fluoro-2-methylpyrimidin-4-yl)-6,6-dimethyl-1,4,5,6-tetrahydropyrrolo[3,4-c]pyrazol-3-amine]
16.8 | CCOc1ncc(F)c(Nc2n[nH]c3c2CN(C(=O)C2(F)CCN(C)CC2)C3(C)C)n1 [Example L1, N-(2-ethoxy-5-fluoropyrimidin-4-yl)-5-[(4-fluoro-1-methylpiperidin-4-yl)carbonyl]-6,6-dimethyl-1,4,5,6-tetrahydropyrrolo[3,4-c]pyrazol-3-amine]
1.12 | CCOc1ncc(F)c(Nc2n[nH]c3c2CN(C(=O)N2C[C@@H](C)N(C)C[C@@H]2C)C3(C)C)n1 [Example K1, N-(2-ethoxy-5-fluoropyrimidin-4-yl)-6,6-dimethyl-5-{[(2S,5R)-2,4,5-trimethylpiperazin-1-yl]carbonyl}-1,4,5,6-tetrahydropyrrolo[3,4-c]pyrazol-3-amine]
29.8 | CCNc1ncc(F)c(Nc2n[nH]c3c2CN(C(=O)N2C[C@@H](C)N(CCC(F)(F)F)C[C@@H]2C)C3(C)C)n1 [Example B5, N4-(5-{[(2S,5R)-2,5-dimethyl-4-(3,3,3-trifluoropropyl)piperazin-1-yl]carbonyl}-6,6-dimethyl-1,4,5,6-tetrahydropyrrolo[3,4-c]pyrazol-3-yl)-N2-ethyl-5-fluoropyrimidine-2,4-diamine]
3.39 | CCNc1nccc(Nc2n[nH]c3c2CN(C(=O)N2CC(C)(C)N(C)C[C@@H]2C)C3(C)C)n1 [Example A8, N^4-(6,6-dimethyl-5-{[(2S)-2,4,5,5-tetramethylpiperazin-1-yl]carbonyl}-1,4,5,6-tetrahydropyrrolo[3,4-c]pyrazol-3-yl)-N^2-ethylpyrimidine-2,4-diamine]
14.9 | Cc1ncc(F)c(Nc2n[nH]c3c2CN(C(=O)N2C[C@@H](C)N(CC4CCOCC4)C[C@@H]2C)C3(C)C)n1 [Example H6, 5-{[(2S,5R)-2,5-dimethyl-4-(tetrahydro-2H-pyran-4-ylmethyl)piperazin-1-yl]carbonyl}-N-(5-fluoro-2-methylpyrimidin-4-yl)-6,6-dimethyl-1,4,5,6-tetrahydropyrrolo[3,4-c]pyrazol-3-amine]
33.4 | CCNc1ncc(F)c(Nc2n[nH]c3c2CN(C(=O)C2(F)CCN(C)CC2)C3(C)C)n1 [Example C1, N^2-ethyl-5-fluoro-N^4-{5-[(4-fluoro-1-methylpiperidin-4-yl)carbonyl]-6,6-dimethyl-1,4,5,6-tetrahydropyrrolo[3,4-c]pyrazol-3-yl}pyrimidine-2,4-diamine]
4.24 | CCOc1ccnc(Nc2n[nH]c3c2CN(C(=O)N2C[C@@H](C)N(C)C[C@@H]2C)C3(C)C)n1 [Example M1, N-(4-ethoxypyrimidin-2-yl)-6,6-dimethyl-5-{[(2S,5R)-2,4,5-trimethylpiperazin-1-yl]carbonyl}-1,4,5,6-tetrahydropyrrolo[3,4-c]pyrazol-3-amine]
6.43 | Cc1ccc(F)c(Nc2n[nH]c3c2CN(C(=O)N2C[C@@H]4CCCN4C[C@@H]2C)C3(C)C)n1 [Example J5, N-(3-fluoro-6-methylpyridin-2-yl)-6,6-dimethyl-5-{[(3S,8aS)-3-methylhexahydropyrrolo[1,2-a]pyrazin-2(1H)-yl]carbonyl}-1,4,5,6-tetrahydropyrrolo[3,4-c]pyrazol-3-amine]
147 | Cc1ncc(F)c(Nc2n[nH]c3c2CN(C(=O)N2C[C@H](C)N(C)C[C@@H]2C)C3(C)C)n1 [AA4, 2(S),5(S)-{[dimethyl-4-methylpiperazin-1-yl]carbonyl}-N-(5-fluoro-2-methylpyrimidin-4-yl)-6,6-dimethyl-1,4,5,6-tetrahydropyrrolo[3,4-c]pyrazol-3-amine]
11.1 | Cc1cc(C)nc(Nc2n[nH]c3c2CN(C(=O)N2C[C@@H](C)N(CC4CCOCC4)C[C@@H]2C)C3(C)C)n1 [Example J16, N-(4,6-dimethylpyrimidin-2-yl)-5-{[(2S,5R)-2,5-dimethyl-4-(tetrahydro-2H-pyran-4-ylmethyl)piperazin-1-yl]carbonyl}-6,6-dimethyl-1,4,5,6-tetrahydropyrrolo[3,4-c]pyrazol-3-amine]
21.2 | Cc1ccc(F)c(Nc2n[nH]c3c2CN(C(=O)C2(F)CCN(C)CC2)C3(C)C)n1 [Example J1, 5-[(4-fluoro-1-methylpiperidin-4-yl)carbonyl]-N-(3-fluoro-6-methylpyridin-2-yl)-6,6-dimethyl-1,4,5,6-tetrahydropyrrolo[3,4-c]pyrazol-3-amine]
< 10 | COCc1ncc(F)c(Nc2n[nH]c3c2CN(C(=O)N2CC(CCO)N(C)C[C@@H]2C)C3(C)C)n1 (single isomer, unassigned) [Example N2]
17.9 | C[C@H]1CN(C)C(C)(C)CN1C(=O)N1Cc2c(Nc3nc(NCC4CC4)ncc3F)n[nH]c2C1(C)C [Example A3, N^2-(cyclopropylmethyl)-N^4-(6,6-dimethyl-5-{[(2S)-2,4,5,5-tetramethylpiperazin-1-yl]carbonyl}-1,4,5,6-tetrahydropyrrolo[3,4-c]pyrazol-3-yl)-5-fluoropyrimidine-2,4-diamine]
< 10 | CCc1ncc(F)c(Nc2n[nH]c3c2CN(C(=O)N2C[C@@H](C)N(CC4CCOCC4)C[C@@H]2C)C3(C)C)n1 [Example J10, 5-{[(2S,5R)-2,5-dimethyl-4-(tetrahydro-2H-pyran-4-ylmethyl)piperazin-1-yl]carbonyl}-N-(2-ethyl-5-fluoropyrimidin-4-yl)-6,6-dimethyl-1,4,5,6-tetrahydropyrrolo[3,4-c]pyrazol-3-amine]
2.1 | COCc1ncc(F)c(Nc2n[nH]c3c2CN(C(=O)N2CC(C)(C)N(C)C[C@@H]2C)C3(C)C)n1 [Example J9, N-[5-fluoro-2-(methoxymethyl)pyrimidin-4-yl]-6,6-dimethyl-5-{[(2S)-2,4,5,5-tetramethylpiperazin-1-yl]carbonyl}-1,4,5,6-tetrahydropyrrolo[3,4-c]pyrazol-3-amine]
0.683 | CCOc1ncc(F)c(Nc2n[nH]c3c2CN(C(=O)N2C[C@@H](C)N(CCCOC)C[C@@H]2C)C3(C)C)n1 [Example K5]
< 10 | CCNc1ncc(F)c(Nc2n[nH]c3c2CN(C(=O)N2C[C@@H](C)N(CC4CCOCC4)C[C@@H]2C)C3(C)C)n1 [Example A11, N^4-(5-{[(2S,5R)-2,5-dimethyl-4-(tetrahydro-2H-pyran-4-ylmethyl)piperazin-1-yl]carbonyl}-6,6-dimethyl-1,4,5,6-tetrahydropyrrolo[3,4-c]pyrazol-3-yl)-N^2-ethyl-5-fluoropyrimidine-2,4-diamine]
28.4 | COCCCOc1ncc(F)c(Nc2n[nH]c3c2CN(C(=O)N2C[C@@H](C)N(C)C[C@@H]2C)C3(C)C)n1 [Example K10, N-[5-fluoro-2-(3-methoxypropoxy)pyrimidin-4-yl]-6,6-dimethyl-5-{[(2S,5R)-2,4,5-trimethylpiperazin-1-yl]carbonyl}-1,4,5,6-tetrahydropyrrolo[3,4-c]pyrazol-3-amine]
54.7 | COc1ncc(F)c(Nc2n[nH]c3c2CN(C(=O)N2CC(CCO)N(C)C[C@@H]2C)C3(C)C)n1 (single isomer, unassigned) [Example K26]
26.5 | CCOc1ncc(F)c(Nc2n[nH]c3c2CN(C(=O)N2C[C@H](C)N(C)C[C@@H]2C)C3(C)C)n1 [Example K13, 2(S),5(S)-{[dimethyl-4-methylpiperazin-1-yl]carbonyl}-N-(5-fluoro-2-ethoxypyrimidin-4-yl)-6,6-dimethyl-1,4,5,6-tetrahydropyrrolo[3,4-c]pyrazol-3-amine]
31.5 | CCc1ncc(F)c(Nc2n[nH]c3c2CN(C(=O)N2C[C@@H](C)N(CCC(F)(F)F)C[C@@H]2C)C3(C)C)n1 [Example E4, 5-{[(2S,5R)-2,5-dimethyl-4-(3,3,3-trifluoropropyl)piperazin-1-yl]carbonyl}-N-(2-ethyl-5-fluoropyrimidin-4-yl)-6,6-dimethyl-1,4,5,6-tetrahydropyrrolo[3,4-c]pyrazol-3-amine]
20.1 | C[C@@H]1CN(C(=O)N2Cc3c(Nc4nc(N5CCOCC5)ncc4F)n[nH]c3C2(C)C)[C@@H](C)CN1C [Example B7, N-(5-fluoro-2-morpholin-4-ylpyrimidin-4-yl)-6,6-dimethyl-5-{[(2S,5R)-2,4,5-trimethylpiperazin-1-yl]carbonyl}-1,4,5,6-tetrahydropyrrolo[3,4-c]pyrazol-3-amine]
0.165 | C[C@@H]1CN(C(=O)N2Cc3c(Nc4nc(OCC(F)(F)F)ncc4F)n[nH]c3C2(C)C)[C@@H](C)CN1C [Example K7, N-[5-fluoro-2-(2,2,2-trifluoroethoxy)pyrimidin-4-yl]-6,6-dimethyl-5-{[(2S,5R)-2,4,5-trimethylpiperazin-1-yl]carbonyl}-1,4,5,6-tetrahydropyrrolo[3,4-c]pyrazol-3-amine]
180 | Cc1ncc(F)c(Nc2n[nH]c3c2CN(C(=O)N2CC(CCO)N(C)C[C@@H]2C)C3(C)C)n1 (single isomer, unassigned) [Example H10]

Reference: US9518060B2, “Substituted pyrrolo[3,4-c]pyrazoles as PKC kinase inhibitors” (PFIZER INC., priority 2007, dated 2016)
